Structures can show the parent of a compound that is named as a salt. Where two headings read alike, the source gives them in different places.
Key:
MeWo cells [1] = assay: Cytotoxicity assay (neutral red), MeWo cells; assay type: cell-based, human; settings: for Dxr-IC50 in the presence of 20 µM compound: MeWo (Figure 3B), same series also tested on A375 (Figure S1); for Dxr-IC50 in the presence of 20 µM compound / effect on dxr cytotoxicity: compound at 20 µM; for effect on dxr cytotoxicity: melanoma cells MeWo (Figure 3B) and A375 (Figure S1), compared to PAH; for IC50: Homo sapiens
Method: (§1) Human melanoma cell lines A375 and MeWo were purchased from ATCC, and cultured in DMEM medium supplemented with 10% fetal bovine serum and penicillin/streptomycin (Invitrogen) at 37 °C in a 5% CO2/95% water-saturated air atmosphere. Melanoma cell lines SKMEL 28, SKMEL V3, WM9S, and WM9R were provided by Robert Ballotti (C3M, Nice, France). MeWo-dxrR cells were obtained by adding increasing concentrations of doxorubicin, up to 0.2 µM, in the culture medium over 6 months. These cells were grown in medium supplemented with 0.2 µM dxr. WM9R cells were obtained by adding increasing concentrations of vemurafenib, up to 5 µM, in the culture medium over 6 months. These cells were grown in medium supplemented with 5 µM vemurafenib. HEK cells were grown in 75 mm tissue culture dishes (Falcon, Franklin Lakes, NJ, USA) in Dulbecco’s modified Eagle’s medium (Gibco, Life Technologies, Saint Aubin, France) supplemented with 10% fetal calf serum (Hyclone, Thermo Fisher Scientific GMBH, Ulm, Germany) and 1% penicillin/streptomycin (Gibco, Life Technologies, Saint Aubin, France) in a humidified incubator at 37 °C (5% CO2).
(§2) Cells were seeded in 96-well plates in triplicate and grown in medium to achieve 70 to 80% confluence. Medium was then removed and replaced with 100 µL/well of complete medium containing PAH or DMSO as a control. After 2 h, 100 µL of complete medium containing serial dilutions of dxr, cisplatin or vemurafenib were added. Plates were incubated at 37 °C and 5% CO2. After 24 or 48 h, cells were incubated for 3 h at 37 °C with 100 µL/well neutral red (NR) solution (50 µg/mL in medium) following the manufacturer’s protocol. Measurements were made in microplate readers (Multiskan Go Microplate Spectrophotometer from Thermo Scientific).

A375 cells [2] = assay: Cytotoxicity assay (neutral red), A375 cells; assay type: cell-based, human; settings: for IC50: Homo sapiens
Method: as §1, §2

MeWo-DxrR cells = assay: Cytotoxicity assay (neutral red), MeWo cells rendered resistant to dxr; assay type: cell-based; settings: Homo sapiens, Dxr + DMSO
Method: as §1
Cells were seeded in 96-well plates in triplicate and grown in medium to achieve 70 to 80% confluence. […] Measurements were made in microplate readers (Multiskan Go Microplate Spectrophotometer from Thermo Scientific).

MeWo cells [3] = assay: Melanoma cells grafted on the chorioallantoic membrane (CAM) of chick eggs; assay type: in vivo; settings: MeWo tumors on CAM; sPAH 500 µM and/or Dxr 20 µM, 100 µL every two days, 10 days
Method: These experiments were performed by the company INOVOTION (La Tronche, France). Fertilized White Leghorn eggs were randomized in 4 groups 9 days after inoculation of 3.10^6 MeWo cells onto the CAM of each egg. At day 10 (E10), tumors began to be detectable and they were treated by adding 100 µL of vehicle (1.2% DMSO in PBS), doxorubicin, and sPAH alone or with doxorubicin. Eggs were treated every two days (E10, E12, E14, E16, E18) for 10 days in the same way. At day 19 (E19), the upper portion of the CAM was removed, washed in PBS, and directly transferred in PFA for 48 h, and the tumors were then carefully cut away from normal CAM tissue.

A375 cells [4] = assay: Competition on dxr loading, A375 cells; assay type: cell-based, human; settings: 10 µM dxr, 100 µM vemurafenib, 1 h
Method: (§3) Dxr efflux measurements were carried out as previously described. Cells were seeded on coverslips in 24-well plates and allowed to grow to 80% confluence. Coverslips were incubated at 37 °C and 5% CO2 with 10 μM dxr in physiological buffer (140 mM NaCl, 5 mM KCl, 1 mM CaCl2, 1 mM MgSO4, 5 mM glucose, 20 mM HEPES, pH 7.4). After 2 h, three coverslips were immediately fixed with 4% PFA for the dxr loading control, rapidly washed with PBS and mounted in SlowFade Gold antifade reagent with DAPI (Invitrogen). The other coverslips (triplicated per condition) were incubated with physiological buffer supplemented with DMSO or 10 µM of PAH under gentle shaking at room temperature and protected from light. After 30 min, coverslips were fixed with 4% PFA, washed, and mounted as described above. For competition on dxr loading, A375 and WM9R cells seeded on coverslips were incubated for 1 h at 37 °C and 5% CO2 with 10 μM dxr in physiological buffer in the presence or the absence of 100 µM vemurafenib. Images were acquired with a Zeiss Axioplan 2 fluorescence microscope coupled to a digital charge-coupled device camera using a 40×/1.3 Plan NeoFluar objective and filters for Alexa 594. Dxr fluorescence was quantified using ImageJ software. Sampling of cells was performed randomly. About 100 cells (from three wells) were scored per condition per experiment.

WM9R cells = assay: Competition on dxr loading, WM9R cells; assay type: cell-based; settings: 10 µM dxr, 100 µM vemurafenib, 1 h
Method: as §3

[5] = system: A375 BRAF^V600E melanoma cells; assay: Melanoma xenograft study in mice; assay type: in vivo; settings: Figure S6
Method: Forty-eight male athymic Nu/NU NMRI mice (4–5 weeks) were purchased from Charles River and housed under pathogen-free conditions. A 200 µL aliquot of 3 Millions A375 BRAF^V600E melanoma cells were injected subcutaneously per mouse. […] Animals were monitored daily for symptoms of disease (weight loss >20%, ruffled coat, hunched back, weakness, reduced motility) and tumor sizes were measured every 3 to 4 days. […]
A part of each tumor was cut in 8 µm thick tissue sections using a microtome-cryostat for quantification of the number of apoptotic tumor cells and of proliferative cells performed using the colorimetric DeadEND TUNEL System (Promega, Mannheim, Germany) and immunofluorescence analysis of Ki67 (BD pharmigen 556003), respectively. OCT was removed from the remainder of each tumor, and tumors were crushed in 50 mM Tris-HCl pH 6.8, 10% glycerol, and 2% SDS), heated at 95 °C, and sonicated for Western blot analyses as well as vemurafenib and cholesterol quantification. Protein concentration in each homogenate was evaluated using a Bio-Rad protein assay based on the Bradford dye-binding method.

`COc1ccc(O)c(CC=C(C)CCc2c(C)cc(OC)c(C)c2C)c1` [Compound 8] was tested, and the “Dxr-IC50 in the presence of 20 µM compound” value (“Dxr-IC50 in the presence” below) (MeWo cells [1]) was “could not be determined, owing to greater than 50% viability” and the “effect on dxr cytotoxicity” value (MeWo cells [1]) was “had no effect on dxr cytotoxicity”.

`COc1cc(C)c(CCC(C)=CCC2=CC(=O)C=CC2=O)c(C)c1C` [Compound 9, Panicein A] was tested, and the “Dxr-IC50 in the presence” value (MeWo cells [1]) was “could not be determined, owing to greater than 50% viability” and the “effect on dxr cytotoxicity” value (MeWo cells [1]) was “very weakly increased the cytotoxicity of dxr”.

With `COc1ccc(O)c(CCC(C)CCc2c(C)cc(OC)c(C)c2C)c1` (centres unmarked) [Compound 11] the “Dxr-IC50 in the presence” value (MeWo cells [1]) was “could not be determined, owing to greater than 50% viability”.

In the case of `COc1cc(C)c(CCC(C)CCC2=CC(=O)C=CC2=O)c(C)c1C` (centres unmarked) [Compound 12], the “Dxr-IC50 in the presence” value (MeWo cells [1]) is reported as “could not be determined, owing to greater than 50% viability”.

For `COc1cc(C)c(CCC(C)CCc2cc(O)ccc2O)c(C)c1C` (centres unmarked) [Compound 13], the “Dxr IC50 in the presence of compound relative to that in the presence of PAH” value (MeWo cells [1]; MeWo, 20 µM compound) was “approximately 4 fold” and the “Dxr IC50 in the presence of compound relative to that in the presence of PAH” value (A375 cells [2]; A375, 20 µM compound) was “comparable to that of PAH”.

In the case of `COc1cccc2c1C(=O)c1c(O)c3c(c(O)c1C2=O)C[C@@](O)(C(=O)CO)C[C@@H]3O[C@H]1C[C@H](N)[C@H](O)[C@H](C)O1` [Dxr, Doxorubicin hydrochloride, reference compound], the IC50 (MeWo cells [1]; MeWo, Dxr + DMSO, 24 or 48 h, read-out: Dxr IC50) is reported as 142 ± 2.2 µM, the IC50 (MeWo-DxrR cells) is reported as 247 ± 49 µM and the IC50 (A375 cells [2]; A-375, A375, Dxr + DMSO, 24 or 48 h, read-out: Dxr IC50) is reported as 41 ± 8.2 µM. For the same molecule, the “Tumor regression (%) (tumor weight with respect to control)” value (MeWo cells [3]) was 28%.

`COc1cc(C)c(CC/C(C)=C/Cc2cc(O)ccc2O)c(C)c1C` [Natural PAH, panicein A hydroquinone] gave an IC50 (MeWo cells [1]; MeWo, MeWo cells, 2 µM Dxr present, read-out: IC50 of PAH at 2 µM Dxr) of 6.6 ± 0.8 µM and an IC50 (A375 cells [2]; A-375, A375 cells, 2 µM Dxr present, read-out: IC50 of PAH at 2 µM Dxr) of 12.4 ± 4.9 µM.

In the case of `CCCS(=O)(=O)Nc1ccc(F)c(C(=O)c2c[nH]c3ncc(-c4ccc(Cl)cc4)cc23)c1F` [vemurafenib], the “amount of dxr in cells in the presence of vemurafenib” value (A375 cells [4]) is reported as “significantly increased”, the “amount of dxr in cells in the presence of vemurafenib” value (WM9R cells) is reported as “significantly increased” and the “ERK phosphorylation in tumor extracts (pERK/ERK, Western blot)” value [5] is reported as “reduced ERK phosphorylation”.

From PMC7352342, “Inhibition of Patched Drug Efflux Increases Vemurafenib Effectiveness against Resistant Braf^V600E Melanoma” (Cancers, 2020)
